The text below walks through data of patent publication US8076487B2, “Pyridone derivative and herbicide” (Kumiai Chemical Industry Co., Ltd., priority 2006, dated 2011).

Holding throughout (assay type): in vivo
For assay [1], the system named is velvetleaf (Abutilon theophrasti medicus). Briefly: Test Example 2: herbicidal effect by soil application to upland field. The note with it: soil surface spray, upland field soil, 1,000 g active ingredient per hectare, 21st day after application. How it is done: (§1) [table] Test Example 2 Test on Herbicidal Effect by Soil Application to Upland field In a 80 cm2 plastic pot, field soil was filled. Seeds of barnyardgrass (Echinochloa crus-galli (L.) P. Beauv. var. crus-galli), green foxtail (Setaria viridis (L.) P. Beauv.), velvetleaf (Abutilon theophrasti medicus), and slender amaranth (Amaranthus viridis L.) were sown and covered with soils. The wettable powder prepared according to Formulation Example 1 was diluted in water and a 1,000 liter equivalent amount per 1 hectare so that the active ingredient becomes 1,000 g per 1 hectare was uniformly sprayed on a soil surface using a small sprayer. Then, on the 21st day after the application to the plants grew in a greenhouse, the herbicidal effect was examined in accordance with a standard shown in Table 34.

Assay [2] deals with green foxtail (Setaria viridis (L.) P. Beauv.). The assay is described as above. Particulars: soil surface spray, upland field soil, 1,000 g active ingredient per hectare, 21st day after application. The procedure: as §1
Assay [3] deals with slender amaranth (Amaranthus viridis L.). The assay is described as above. The note with it: soil surface spray, upland field soil, 1,000 g active ingredient per hectare, 21st day after application. The procedure: as §1
Assay [4] relates to barnyardgrass (Echinochloa crus-galli (L.) P. Beauv. var. crus-galli). The assay is described as above. Particulars: soil surface spray, upland field soil, 1,000 g active ingredient per hectare, 21st day after application. How it is done:
as §1

Assay [5] concerns heartshape false pickerelweed (Monochoria vaginalis (Burm.f.) C.Presl). The assay is described as follows: Test Example 1: herbicidal effect by soil application to paddy field. Particulars: for herbicidal effect, Monochoria vaginalis (Burm. f.) C. Presl: paddy field soil application, active ingredient 1,000 g per 1 hectare, wettable powder added dropwise to water surface the day after sowing, examined on the 21st day after application. The essentials:
(§2)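 Under greenhouse conditions, seeds sown on puddled paddy soil in 100 cm2 pots under 3 cm of standing water received the test compound; injury was assessed with a standard scoring scheme three weeks (day 21) after treatment.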

In assay [6] the test system is early watergrass (Echinochloa oryzicola Vasing). The description is as above. The note with it: for herbicidal effect, Echinochloa oryzicola Vasing: paddy field soil application, active ingredient 1,000 g per 1 hectare, wettable powder added dropwise to water surface the day after sowing, examined on the 21st day after application. Put shortly: as §2
Assay [7] has as its system Japanese bulrush (Scirpus juncoides Roxb.). The assay is described as above. Particulars: for herbicidal effect, Scirpus juncoides Roxb.: paddy field soil application, active ingredient 1,000 g per 1 hectare, wettable powder added dropwise to water surface the day after sowing, examined on the 21st day after application. Put shortly:
as §2

Where [8] appears, read: soil application to paddy field, rated by standard of Table 34.

As to `C#CCOc1c(C(=O)c2ccc(C(F)(F)F)n(C)c2=O)cnn1C` [IV-189], the “herbicidal effect (index), Velvetleaf” value in assay [1] was 4 (70 to less than 90% of herbicidal effect and crop phytotoxicity). Moreover, in assay [2], the “herbicidal effect (index), Green Foxtail” value was 4 (70 to less than 90% of herbicidal effect and crop phytotoxicity). Besides, in assay [3], the “herbicidal effect (index), Slender Amaranth” value is 5 (90% or more of herbicidal effect and crop phytotoxicity). In addition, the “herbicidal effect (index), Barnyardgrass” value in assay [4] is 5 (90% or more of herbicidal effect and crop phytotoxicity). The “herbicidal effect, Monochoria vaginalis (Burm. f.) C. Presl” value (“herbicidal effect, Monochoria vaginalis” below) in assay [5] was 5 (90% or more of herbicidal effect and crop phytotoxicity). The “herbicidal effect, Echinochloa oryzicola Vasing” value in assay [6] is 5 (90% or more of herbicidal effect and crop phytotoxicity). For the same molecule, the “herbicidal effect, Scirpus juncoides Roxb.” value in assay [7] is 5 (90% or more of herbicidal effect and crop phytotoxicity).

Turning to `Cn1c(C(F)(F)F)ccc(C(=O)C2=C(Sc3ccc(Cl)cc3Cl)CCCC2=O)c1=O` [II-14], the “herbicidal effect (index), Velvetleaf” value in assay [1] is 5 (90% or more of herbicidal effect and crop phytotoxicity). The “herbicidal effect (index), Green Foxtail” value in assay [2] is 3 (50 to less than 70% of herbicidal effect and crop phytotoxicity). The “herbicidal effect (index), Slender Amaranth” value in assay [3] was 5 (90% or more of herbicidal effect and crop phytotoxicity). The “herbicidal effect (index), Barnyardgrass” value in assay [4] is 4 (70 to less than 90% of herbicidal effect and crop phytotoxicity). In addition, the “herbicidal effect, Monochoria vaginalis” value in assay [5] is 5 (90% or more of herbicidal effect and crop phytotoxicity). Besides, the “herbicidal effect, Echinochloa oryzicola Vasing” value in assay [6] was 5 (90% or more of herbicidal effect and crop phytotoxicity). For the same molecule, in assay [7], the “herbicidal effect, Scirpus juncoides Roxb.” value is 5 (90% or more of herbicidal effect and crop phytotoxicity).

For `Cn1c(C(F)(F)F)ccc(C(=O)C2=C(O)C3C=CC(C3)C2=O)c1=O` (centres unmarked) [III-42], in assay [1], the “herbicidal effect (index), Velvetleaf” value is 5 (90% or more of herbicidal effect and crop phytotoxicity). Also, the “herbicidal effect (index), Green Foxtail” value in assay [2] is 3 (50 to less than 70% of herbicidal effect and crop phytotoxicity). The “herbicidal effect (index), Slender Amaranth” value in assay [3] is 5 (90% or more of herbicidal effect and crop phytotoxicity). Besides, the “herbicidal effect (index), Barnyardgrass” value in assay [4] was 4 (70 to less than 90% of herbicidal effect and crop phytotoxicity). Besides, the “herbicidal effect, Monochoria vaginalis” value in assay [5] was 5 (90% or more of herbicidal effect and crop phytotoxicity). In assay [6], the “herbicidal effect, Echinochloa oryzicola Vasing” value is 5 (90% or more of herbicidal effect and crop phytotoxicity). Also, the “herbicidal effect, Scirpus juncoides Roxb.” value in assay [7] was 5 (90% or more of herbicidal effect and crop phytotoxicity).

With `COC1=C(C(=O)c2ccc(C(F)(F)F)n(C)c2=O)C(=O)CCC1` [II-22], the “herbicidal effect (index), Velvetleaf” value in assay [1] was 5 (90% or more of herbicidal effect and crop phytotoxicity). Besides, in assay [2], the “herbicidal effect (index), Green Foxtail” value was 4 (70 to less than 90% of herbicidal effect and crop phytotoxicity). For the same molecule, the “herbicidal effect (index), Slender Amaranth” value in assay [3] was 5 (90% or more of herbicidal effect and crop phytotoxicity). In addition, the “herbicidal effect (index), Barnyardgrass” value in assay [4] was 4 (70 to less than 90% of herbicidal effect and crop phytotoxicity). Besides, the “herbicidal effect, Monochoria vaginalis” value in assay [5] is 5 (90% or more of herbicidal effect and crop phytotoxicity). Also, in assay [6], the “herbicidal effect, Echinochloa oryzicola Vasing” value was 5 (90% or more of herbicidal effect and crop phytotoxicity). The “herbicidal effect, Scirpus juncoides Roxb.” value in assay [7] is 5 (90% or more of herbicidal effect and crop phytotoxicity).

Take `Cc1ccc(C(=O)C2=C(O)CCCC2=O)c(=O)n1-c1ccc(Cl)cc1` [I-233]: the “herbicidal effect (index), Velvetleaf” value in assay [1] was 5 (90% or more of herbicidal effect and crop phytotoxicity). The “herbicidal effect (index), Green Foxtail” value in assay [2] is 3 (50 to less than 70% of herbicidal effect and crop phytotoxicity). The “herbicidal effect (index), Slender Amaranth” value in assay [3] is 5 (90% or more of herbicidal effect and crop phytotoxicity). In assay [4], the “herbicidal effect (index), Barnyardgrass” value was 4 (70 to less than 90% of herbicidal effect and crop phytotoxicity). The “herbicidal effect, Monochoria vaginalis” value in assay [5] was 5 (90% or more of herbicidal effect and crop phytotoxicity). For the same molecule, the “herbicidal effect, Echinochloa oryzicola Vasing” value in assay [6] is 5 (90% or more of herbicidal effect and crop phytotoxicity). Further, in assay [7], the “herbicidal effect, Scirpus juncoides Roxb.” value is 5 (90% or more of herbicidal effect and crop phytotoxicity).

For `Cn1ncc(C(=O)c2ccc(C(F)(F)F)n(CC3CCCO3)c2=O)c1OC(=O)c1ccccc1` (centres unmarked) [IV-131], the “herbicidal effect (index), Velvetleaf” value in assay [1] was 4 (70 to less than 90% of herbicidal effect and crop phytotoxicity). Further, the “herbicidal effect (index), Green Foxtail” value in assay [2] was 3 (50 to less than 70% of herbicidal effect and crop phytotoxicity). Also, the “herbicidal effect (index), Slender Amaranth” value in assay [3] was 5 (90% or more of herbicidal effect and crop phytotoxicity). In addition, the “herbicidal effect (index), Barnyardgrass” value in assay [4] is 4 (70 to less than 90% of herbicidal effect and crop phytotoxicity). In addition, the “herbicidal effect, Monochoria vaginalis” value in assay [5] is 5 (90% or more of herbicidal effect and crop phytotoxicity). Further, the “herbicidal effect, Echinochloa oryzicola Vasing” value in assay [6] was 5 (90% or more of herbicidal effect and crop phytotoxicity). Besides, the “herbicidal effect, Scirpus juncoides Roxb.” value in assay [7] was 5 (90% or more of herbicidal effect and crop phytotoxicity).

As for `CN(c1ccccc1)n1c(C(F)(F)F)ccc(C(=O)C2=C(O)CCCC2=O)c1=O` [I-182], the “herbicidal effect (index), Velvetleaf” value in assay [1] is 5 (90% or more of herbicidal effect and crop phytotoxicity). In addition, the “herbicidal effect (index), Green Foxtail” value in assay [2] was 4 (70 to less than 90% of herbicidal effect and crop phytotoxicity). The “herbicidal effect (index), Slender Amaranth” value in assay [3] was 5 (90% or more of herbicidal effect and crop phytotoxicity). Besides, the “herbicidal effect (index), Barnyardgrass” value in assay [4] is 5 (90% or more of herbicidal effect and crop phytotoxicity). Further, the “herbicidal effect, Monochoria vaginalis” value in assay [5] was 5 (90% or more of herbicidal effect and crop phytotoxicity). Further, the “herbicidal effect, Echinochloa oryzicola Vasing” value in assay [6] is 5 (90% or more of herbicidal effect and crop phytotoxicity). In assay [7], the “herbicidal effect, Scirpus juncoides Roxb.” value was 5 (90% or more of herbicidal effect and crop phytotoxicity).

Consider `CC(C)(C)c1ccc(-n2c(C(F)(F)F)ccc(C(=O)C3=C(O)CCCC3=O)c2=O)cc1` [I-96], for which the “herbicidal effect (index), Velvetleaf” value in assay [1] is 5 (90% or more of herbicidal effect and crop phytotoxicity). The “herbicidal effect (index), Green Foxtail” value in assay [2] was 5 (90% or more of herbicidal effect and crop phytotoxicity). In addition, in assay [3], the “herbicidal effect (index), Slender Amaranth” value was 3 (50 to less than 70% of herbicidal effect and crop phytotoxicity). In addition, the “herbicidal effect (index), Barnyardgrass” value in assay [4] was 5 (90% or more of herbicidal effect and crop phytotoxicity). Besides, the “herbicidal effect, Monochoria vaginalis” value in assay [5] is 5 (90% or more of herbicidal effect and crop phytotoxicity). Besides, in assay [6], the “herbicidal effect, Echinochloa oryzicola Vasing” value is 5 (90% or more of herbicidal effect and crop phytotoxicity). Moreover, the “herbicidal effect, Scirpus juncoides Roxb.” value in assay [7] was 5 (90% or more of herbicidal effect and crop phytotoxicity).

For the molecule `CC(CCn1c(C(F)(F)F)ccc(C(=O)c2cnn(C)c2O)c1=O)=C(F)F` [IV-32], the “herbicidal effect (index), Velvetleaf” value in assay [1] is 5 (90% or more of herbicidal effect and crop phytotoxicity). For the same molecule, the “herbicidal effect (index), Green Foxtail” value in assay [2] was 3 (50 to less than 70% of herbicidal effect and crop phytotoxicity). Moreover, the “herbicidal effect (index), Slender Amaranth” value in assay [3] was 5 (90% or more of herbicidal effect and crop phytotoxicity). For the same molecule, the “herbicidal effect (index), Barnyardgrass” value in assay [4] is 4 (70 to less than 90% of herbicidal effect and crop phytotoxicity). Further, the “herbicidal effect, Monochoria vaginalis” value in assay [5] is 5 (90% or more of herbicidal effect and crop phytotoxicity). Moreover, the “herbicidal effect, Echinochloa oryzicola Vasing” value in assay [6] was 5 (90% or more of herbicidal effect and crop phytotoxicity). The “herbicidal effect, Scirpus juncoides Roxb.” value in assay [7] was 5 (90% or more of herbicidal effect and crop phytotoxicity).

Turning to `CCCS(=O)(=O)Oc1c(C(=O)c2ccc(C(F)(F)F)n(-c3ccccc3)c2=O)c(C)nn1C` [IV-237], the “herbicidal effect (index), Velvetleaf” value in assay [1] was 4 (70 to less than 90% of herbicidal effect and crop phytotoxicity). In addition, in assay [2], the “herbicidal effect (index), Green Foxtail” value is 4 (70 to less than 90% of herbicidal effect and crop phytotoxicity). Moreover, the “herbicidal effect (index), Slender Amaranth” value in assay [3] was 5 (90% or more of herbicidal effect and crop phytotoxicity). In addition, in assay [4], the “herbicidal effect (index), Barnyardgrass” value was 4 (70 to less than 90% of herbicidal effect and crop phytotoxicity). Further, the “herbicidal effect, Monochoria vaginalis” value in assay [5] is 5 (90% or more of herbicidal effect and crop phytotoxicity). The “herbicidal effect, Echinochloa oryzicola Vasing” value in assay [6] was 5 (90% or more of herbicidal effect and crop phytotoxicity). The “herbicidal effect, Scirpus juncoides Roxb.” value in assay [7] was 5 (90% or more of herbicidal effect and crop phytotoxicity).

`CCCn1c(C(F)(F)F)ccc(C(=O)C(C#N)=C(O)C2CC2)c1=O` [V-21]: the “herbicidal effect (index), Velvetleaf” value in assay [1] is 5 (90% or more of herbicidal effect and crop phytotoxicity). The “herbicidal effect (index), Green Foxtail” value in assay [2] was 5 (90% or more of herbicidal effect and crop phytotoxicity). In assay [3], the “herbicidal effect (index), Slender Amaranth” value was 5 (90% or more of herbicidal effect and crop phytotoxicity). In assay [4], the “herbicidal effect (index), Barnyardgrass” value was 5 (90% or more of herbicidal effect and crop phytotoxicity). For the same molecule, the “herbicidal effect (index), Monochoria vaginalis (Burm.f.) C.Presl” value in assay [5] (setting [8]) was 5 (90% or more of herbicidal effect and crop phytotoxicity). In addition, the “herbicidal effect (index), Echinochloa oryzicola Vasing” value in assay [6] (setting [8]) is 5 (90% or more of herbicidal effect and crop phytotoxicity). Further, the “herbicidal effect (index), Scirpus juncoides Roxb.” value in assay [7] (setting [8]) is 5 (90% or more of herbicidal effect and crop phytotoxicity).
